Test results published in PMC7179259, “Safety, Tolerability, Pharmacokinetics, and Antimalarial Activity of the Novel Plasmodium Phosphatidylinositol 4-Kinase Inhibitor MMV390048 in Healthy Volunteers” (Antimicrobial Agents and Chemotherapy, 2020).

Test system: P. falciparum 3D7
Assay: Induced blood-stage malaria (IBSM) study: antimalarial activity (parasitemia by qPCR)
Assay type: in vivo, Plasmodium falciparum
Details: 20 mg single dose
Protocol: (ii) IBSM study. The dose of MMV390048 chosen (20 mg) was based on the pharmacokinetic, safety, and tolerability data available from the first-in-human study at the time the IBSM study commenced (when 5- and 20-mg-dose cohorts of the first-in-human study had been completed). This dose was below the estimated single dose required to achieve complete cure calculated from preclinical studies (80 to 100 mg) since recrudescence allows for characterization of the pharmacokinetic/pharmacodynamic relationship between MMV390048 and P. falciparum parasitemia. Subjects were inoculated intravenously on day 0 with erythrocytes infected with ∼1,800 viable chloroquine-sensitive P. falciparum 3D7 parasites ([17]). Fasted (≥8 h) subjects were dosed with MMV390048 when they reached the parasitemia threshold for treatment (∼1,000 parasites ml^−1) and were followed up until the end-of-study visit on day 28.
Parasitemia was monitored by collecting blood samples and performing quantitative PCR (qPCR) targeting the gene encoding P. falciparum 18S rRNA ([20]). Blood samples were collected daily from day 4 until parasites were detectable; twice daily until MMV390048 dosing; before MMV390048 dosing and 2, 4, 8, 12, 16, 20, 24, 30, 36, 48, 60, and 72 h after MMV390048 dosing; twice daily until parasitemia was not detected over a 48-h period; 3 times per week until artemether-lumefantrine treatment; and then at the end of the study (day 28).

## CS(=O)(=O)c1ccc(-c2cnc(N)c(-c3ccc(C(F)(F)F)nc3)c2)cc1 [MMV390048]
N = 2 subjects (highest exposure)
  time to recrudescence after MMV390048 dosing: 7 days
N = 4 subjects
  time to recrudescence after MMV390048 dosing: 2 days
N = 6
  parasitemia following administration: decreased initially in all subjects
  recrudescence: observed in all subjects
